# Source: paper PMC3466269, “A Comprehensive Strategy to Discover Inhibitors of the Translesion Synthesis DNA Polymerase κ” (PLoS ONE, 2012)
# Molecular target: T1, Yeast pol δ (Saccharomyces cerevisiae, UniProt P15436)
# T1 sequence (P15436 1-1097): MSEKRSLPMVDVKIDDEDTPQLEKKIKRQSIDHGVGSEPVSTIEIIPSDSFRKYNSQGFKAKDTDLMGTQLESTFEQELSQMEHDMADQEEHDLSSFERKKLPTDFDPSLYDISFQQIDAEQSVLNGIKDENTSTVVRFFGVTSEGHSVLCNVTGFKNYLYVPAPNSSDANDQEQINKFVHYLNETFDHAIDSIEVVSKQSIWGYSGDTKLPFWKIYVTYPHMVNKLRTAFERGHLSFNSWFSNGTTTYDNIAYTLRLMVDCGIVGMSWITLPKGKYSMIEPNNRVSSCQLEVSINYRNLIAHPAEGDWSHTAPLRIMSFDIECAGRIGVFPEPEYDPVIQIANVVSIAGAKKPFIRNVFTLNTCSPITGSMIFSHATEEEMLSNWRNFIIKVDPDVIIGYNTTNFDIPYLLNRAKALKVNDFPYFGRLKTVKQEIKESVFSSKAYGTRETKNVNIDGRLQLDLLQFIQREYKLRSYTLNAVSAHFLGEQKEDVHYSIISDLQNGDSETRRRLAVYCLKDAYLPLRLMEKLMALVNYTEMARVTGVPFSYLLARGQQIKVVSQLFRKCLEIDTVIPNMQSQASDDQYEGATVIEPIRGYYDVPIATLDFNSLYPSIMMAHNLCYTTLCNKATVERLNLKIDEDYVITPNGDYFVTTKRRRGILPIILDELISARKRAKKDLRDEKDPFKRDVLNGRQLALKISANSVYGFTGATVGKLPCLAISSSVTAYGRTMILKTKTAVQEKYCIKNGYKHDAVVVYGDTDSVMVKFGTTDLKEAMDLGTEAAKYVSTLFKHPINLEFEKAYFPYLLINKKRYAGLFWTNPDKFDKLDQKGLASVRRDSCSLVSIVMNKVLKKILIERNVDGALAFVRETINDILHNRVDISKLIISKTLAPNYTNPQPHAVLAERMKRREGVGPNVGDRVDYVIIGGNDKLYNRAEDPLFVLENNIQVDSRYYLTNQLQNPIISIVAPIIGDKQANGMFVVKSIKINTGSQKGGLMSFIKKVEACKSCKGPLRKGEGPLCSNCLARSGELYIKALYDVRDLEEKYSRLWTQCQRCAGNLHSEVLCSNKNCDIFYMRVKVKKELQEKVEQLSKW
# T1 sequence (P46957 1-487 partner): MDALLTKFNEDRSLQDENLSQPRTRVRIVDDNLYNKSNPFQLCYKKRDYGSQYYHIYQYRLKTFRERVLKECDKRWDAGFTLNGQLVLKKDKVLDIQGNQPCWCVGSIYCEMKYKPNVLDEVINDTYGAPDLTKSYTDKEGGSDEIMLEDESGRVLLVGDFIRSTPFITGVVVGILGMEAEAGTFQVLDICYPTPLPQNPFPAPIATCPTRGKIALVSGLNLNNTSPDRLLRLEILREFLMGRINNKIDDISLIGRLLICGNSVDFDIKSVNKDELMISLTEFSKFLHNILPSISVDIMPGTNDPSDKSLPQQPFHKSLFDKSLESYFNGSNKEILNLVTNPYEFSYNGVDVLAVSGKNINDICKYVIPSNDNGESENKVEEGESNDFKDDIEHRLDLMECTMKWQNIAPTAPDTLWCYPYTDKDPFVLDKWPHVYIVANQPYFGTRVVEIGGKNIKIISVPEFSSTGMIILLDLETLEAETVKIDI
# T1 sequence (P47110 1-350 partner): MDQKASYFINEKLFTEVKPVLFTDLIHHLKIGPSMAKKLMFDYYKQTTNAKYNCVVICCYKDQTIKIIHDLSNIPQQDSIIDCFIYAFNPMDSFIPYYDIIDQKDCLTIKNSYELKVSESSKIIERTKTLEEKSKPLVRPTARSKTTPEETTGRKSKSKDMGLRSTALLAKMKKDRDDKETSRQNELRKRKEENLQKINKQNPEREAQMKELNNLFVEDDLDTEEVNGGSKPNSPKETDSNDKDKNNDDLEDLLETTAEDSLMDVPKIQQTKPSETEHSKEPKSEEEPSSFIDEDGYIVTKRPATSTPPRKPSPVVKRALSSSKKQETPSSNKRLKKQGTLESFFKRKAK
# Test: Radioactive gel-based primer extension assay, pol δ
# Format: biochemical
# Method: The reactions with pol κ, pol η, and pol ι were carried out in the buffers containing 25 mM Tris-HCl, pH 7.5, 8 mM MgCl2, 10% glycerol, 100 µg/mL bovine serum albumin, and 5 mM DTT. Buffers for pol δ reactions contained 40 mM Hepes-KOH, pH 6.8, 10% glycerol, 200 µg/mL bovine serum albumin, 1 mM DTT, and 8 mM MgCl2. Final concentration of pol κ, pol η, pol ι, or pol δ in the reaction was 0.25 nM, 1 nM, 2.5 nM, or 4 nM, respectively. In this assay, a polymerase was preincubated with the compound for 15 min at room temperature. Primer extensions were then initiated by the addition of DNA substrate at final concentration of 5 nM and carried out for 30 min at room temperature in the presence of 100 µM dCTP and dGTP. The reactions were terminated by the addition of an equal volume of a dye solution containing 95% (v/v) formamide, 10 mM EDTA, 0.03% (w/v) xylene cyanol, and 0.03% (w/v) bromphenol blue. Reaction products were separated through a 15% acrylamide gel containing 8 M urea and visualized with a PhosphorImager screen. The ratio of extended primer to the total amount of primer was measured using ImageQuant 5.2 software to calculate the percentage of primer extended. IC50 values were determined by fitting the data to variable slope four-parameter equations using GraphPad Prism 5. […]
compound,measurement,setting,value
"CCOc1nc2cccc(C(=O)OC(C)OC(=O)OC3CCCCC3)c2n1Cc1ccc(-c2ccccc2-c2nnn[nH]2)cc1 (centres unmarked) [candesartan cilexetil, Candesartan cilexetil]",IC50 pol δ,maximum concentration 80 µM,could not be determined
same,Inhibition of pol δ DNA synthesis,"several concentrations, maximum 80 µM, data not shown",only at 80 µM concentration was there detectable inhibition
